Measured values published in patent publication US20260347364A1, “PYRAZOLO[4,3-F]QUINAZOLINE DERIVATIVES AS MODULATORS OF G12D MUTANT KRAS USEFUL FOR THE TREATMENT OF CANCER” (JAZZ PHARMACEUTICALS IRELAND LTD., priority 2023, published 2026).

Experiments:
KRAS G12D = molecular target: T1, KRAS G12D (Homo sapiens, UniProt P01116, G12D); assay: HTRF nucleotide exchange assay, KRAS G12D; format: biochemical; settings: HTRF nucleotide exchange assay (NEA), class symbols
T1 construct: aa1-188 KRAS WT, HRAS WT, NRAS WT, or KRAS containing the G12D

KRAS WT = molecular target: T2, KRAS WT (Homo sapiens, UniProt P01116); assay: HTRF nucleotide exchange assay, KRAS WT; format: biochemical; settings: class symbols; for IC50: HTRF nucleotide exchange assay (NEA)
T2 construct: aa1-188 KRAS WT
T2 sequence (P01116 1-188 isoform P01116-2): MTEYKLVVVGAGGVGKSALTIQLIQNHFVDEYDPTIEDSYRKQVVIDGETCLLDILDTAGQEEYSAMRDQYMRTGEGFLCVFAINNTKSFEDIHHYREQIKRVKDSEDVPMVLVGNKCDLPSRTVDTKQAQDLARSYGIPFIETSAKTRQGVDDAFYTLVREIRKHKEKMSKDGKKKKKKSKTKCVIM

T1 sequence (P01116 1-188 isoform P01116-2 G12D): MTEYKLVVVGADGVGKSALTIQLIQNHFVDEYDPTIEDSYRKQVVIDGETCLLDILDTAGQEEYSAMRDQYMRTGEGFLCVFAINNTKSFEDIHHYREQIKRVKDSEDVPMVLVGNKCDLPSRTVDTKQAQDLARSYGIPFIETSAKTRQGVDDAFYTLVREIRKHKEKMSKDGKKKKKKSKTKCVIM

Row | Compound | IC50 (KRAS G12D) | IC50 (KRAS WT) | KRAS^WT NEA (KRAS WT)
1 | C#Cc1c(F)ccc2cc(O)cc(-c3c(C)c4nc(OC[C@@]56CCCN5C[C@H](F)C6)nc(N5CCCn6nc(C(=O)N(C)C)cc6C5)c4c4cn(C)nc34)c12 [Example 97, 5-[4-(8-ethynyl-7-fluoro-3-hydroxy-1-naphthyl)-2,5-dimethyl-7-[[(2R,8S)-2-fluoro-1,2,3,5,6,7-hexahydropyrrolizin-8-yl]methoxy]pyrazolo[4,3-f]quinazolin-9-yl]-N,N-dimethyl-4,6,7,8-tetrahydropyrazolo[1,5-a][1,4]diazepine-2-carboxamide] | ≤ 10 nM | ≤ 10 nM | 
2 | CCc1c(F)ccc2cc(O)cc(-c3cc4nc(OC[C@@]56CCCN5C[C@H](F)C6)nc(N5CCCn6nc(C#N)cc6C5)c4c4cn(C)nc34)c12 [Example 73, 5-[4-(8-ethyl-7-fluoro-3-hydroxy-1-naphthyl)-7-[[(2R,8S)-2-fluoro-1,2,3,5,6,7-hexahydropyrrolizin-8-yl]methoxy]-2-methyl-pyrazolo[4,3-f]quinazolin-9-yl]-4,6,7,8-tetrahydropyrazolo[1,5-a][1,4]diazepine-2-carbonitrile] | ≤ 10 nM | 10 to 100 nM | 
3 | CCc1c(F)ccc2cc(O)cc(-c3cc4nc(OC[C@@]56CCCN5C[C@H](F)C6)nc(N5CCCn6nc(C(=O)N(C)C)cc6C5)c4c4cn(CC(F)(F)F)nc34)c12 [Example 78, 5-[4-(8-ethyl-7-fluoro-3-hydroxy-1-naphthyl)-7-[[(2R,8S)-2-fluoro-1,2,3,5,6,7-hexahydropyrrolizin-8-yl]methoxy]-2-(2,2,2-trifluoroethyl)pyrazolo[4,3-f]quinazolin-9-yl]-N,N-dimethyl-4,6,7,8-tetrahydropyrazolo[1,5-a][1,4]diazepine-2-carboxamide] | ≤ 10 nM | 100 to 10000 nM | 
4 | Cn1cc2c(n1)c(-c1cc(O)ccc1F)cc1nc(OC[C@@]34CCCN3C[C@H](F)C4)nc(N3CCCOCC3)c12 [Example 5] | 100 to 10000 nM |  | D (<49% inhibition at 10 μM)
5 | CCc1c(F)ccc2cc(O)cc(-c3c(F)c4nc(OCC5(CN6CC(C#N)C6)CC5)nc(N5CCOCC(C)(O)C5)c4c4cn(C)nc34)c12 (stereo not shown) [Example 171, 1-[[1-[[4-(8-ethyl-7-fluoro-3-hydroxy-1-naphthyl)-5-fluoro-9-(6-hydroxy-6-methyl-1,4-oxazepan-4-yl)-2-methyl-pyrazolo[4,3-f]quinazolin-7-yl]oxymethyl]cyclopropyl]methyl]azetidine-3-carbonitrile] | ≤ 10 nM | ≤ 10 nM | 
6 | CCc1c(F)ccc2cc(O)cc(-c3c(F)c4nc(OCC56COC(COC)(C5)C6)nc(N5CC6CCC(C5)N6)c4c4cn(C)nc34)c12 [Example 169, 4-[9-(3,8-diazabicyclo[3.2.1]octan-3-yl)-5-fluoro-7-[[1-(methoxymethyl)-2-oxabicyclo[2.1.1]hexan-4-yl]methoxy]-2-methyl-pyrazolo[4,3-f]quinazolin-4-yl]-5-ethyl-6-fluoro-naphthalen-2-ol] | ≤ 10 nM | 100 to 10000 nM | 
7 | CCc1c(F)ccc2cc(O)cc(-c3c(F)c4nc(OC[C@@H]5CCN5C)nc(N5CCOCC(C)(O)C5)c4c4cn(C)nc34)c12 (stereo partly drawn) [Example 158, 4-[4-(8-ethyl-7-fluoro-3-hydroxy-1-naphthyl)-5-fluoro-2-methyl-7-[[(2S)-1-methylazetidin-2-yl]methoxy]pyrazolo[4,3-f]quinazolin-9-yl]-6-methyl-1,4-oxazepan-6-ol] | ≤ 10 nM | ≤ 10 nM | 
8 | CCc1c(F)ccc2cc(O)cc(-c3cc4nc(OC[C@@]56CCCN5C[C@H](F)C6)nc(N5CC6CCC(C5)N6CC(C)O)c4c4cn(C)nc34)c12 (stereo partly drawn) [Example 91, 5-ethyl-6-fluoro-4-[7-[[(2R,8S)-2-fluoro-1,2,3,5,6,7-hexahydropyrrolizin-8-yl]methoxy]-9-[3-(2-hydroxypropyl)-3,8-diazabicyclo[3.2.1]octan-8-yl]-2-methyl-pyrazolo[4,3-f]quinazolin-4-yl]naphthalen-2-ol] | ≤ 10 nM | 100 to 10000 nM | 
